#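 Compound exposure: 48 hours, 5 concentrations, 96-well plates. At the GI50, growth is halved. At the TGI there is no net growth.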
# How the values were obtained:
# Experiment in all cases: DTP human tumour cell line panel, 48 h
# SF-539 CNS = system: SF-539 CNS
# SK-OV-3 ovarian = system: SK-OV-3 ovarian
# HCT-116 colon = system: HCT-116 colon
# MDA-MB-435 = system: MDA-MB-435
# PC-3 prostate = system: PC-3 prostate
# UACC-257 melanoma = system: UACC-257 melanoma
# HT29 colon = system: HT29 colon
# SK-MEL-5 melanoma = system: SK-MEL-5 melanoma
# MDA-MB-231 breast = system: MDA-MB-231 breast
# A498 renal = system: A498 renal
# RXF 393 renal = system: RXF 393 renal
# COLO 205 colon = system: COLO 205 colon
# NCI-H522 lung = system: NCI-H522 lung
# HCC-2998 colon = system: HCC-2998 colon
# SR leukemia = system: SR leukemia
# SNB-19 CNS = system: SNB-19 CNS
# IGROV1 ovarian = system: IGROV1 ovarian
SMILES,TGI (SF-539 CNS),TGI (SK-OV-3 ovarian),TGI (HCT-116 colon),TGI (MDA-MB-435),TGI (PC-3 prostate),TGI (UACC-257 melanoma),TGI (HT29 colon),TGI (SK-MEL-5 melanoma),TGI (MDA-MB-231 breast),TGI (A498 renal),TGI (RXF 393 renal),TGI (COLO 205 colon),TGI (NCI-H522 lung),TGI (HCC-2998 colon),TGI (SR leukemia),TGI (SNB-19 CNS),TGI (IGROV1 ovarian),GI50 (SK-OV-3 ovarian),GI50 (A498 renal),GI50 (RXF 393 renal)
O=C1OC(c2ccccc2)=N/C1=C\c1ccc([N+](=O)[O-])cc1,> 100 µM,> 100 µM,> 100 µM,> 100 µM,> 100 µM,> 100 µM,> 100 µM,> 100 µM,> 100 µM,> 100 µM,> 100 µM,> 100 µM,> 100 µM,> 100 µM,79.6 µM,> 100 µM,> 100 µM,,,
O=C1NC2(CCN(CCc3ccccc3)CC2)Oc2ccccc21,> 100 µM,> 100 µM,> 100 µM,> 100 µM,> 100 µM,> 100 µM,> 100 µM,27.8 µM,> 100 µM,> 100 µM,> 100 µM,> 100 µM,> 100 µM,> 100 µM,> 100 µM,> 100 µM,> 100 µM,,,
C[N+]12C=CC=C1C(N1CCCC1)c1scc(-c3ccc(Br)cc3)c12 (stereo not given),21.9 µM,> 100 µM,> 100 µM,76.9 µM,99.2 µM,> 51.9 µM,> 100 µM,16.1 µM,> 93.8 µM,> 100 µM,43.5 µM,39.8 µM,9.89 µM,39.9 µM,35.5 µM,39.2 µM,20.8 µM,,,
C=CCNC(=S)N/C=C(\C#N)C(N)=O,> 100 µM,> 100 µM,> 100 µM,> 100 µM,> 100 µM,> 100 µM,> 100 µM,> 100 µM,> 100 µM,> 100 µM,> 100 µM,> 100 µM,> 100 µM,> 100 µM,> 100 µM,> 100 µM,> 100 µM,,,
O=C1C(Br)=C(Br)C(=O)c2ccc(=O)ccc21,45 µM,> 100 µM,39.1 µM,33.3 µM,> 100 µM,58.3 µM,> 75 µM,44.4 µM,35.9 µM,> 100 µM,36.3 µM,26.4 µM,7.25 µM,> 100 µM,45 µM,> 100 µM,> 66.1 µM,,,
CCOC(=O)c1cn2c(n1)sc1cc(F)ccc12,> 100 µM,> 100 µM,> 100 µM,> 100 µM,> 100 µM,> 100 µM,> 100 µM,> 100 µM,> 100 µM,> 100 µM,> 100 µM,> 100 µM,> 100 µM,> 100 µM,> 100 µM,> 100 µM,> 100 µM,,,
Cc1ccc(S(=O)(=O)N2C3C=CC(C3)[C@@H]2C(Cl)(Cl)Cl)cc1 (stereo not given in full),30 µM,> 100 µM,24.7 µM,> 88.4 µM,> 70.3 µM,60.5 µM,31.8 µM,38.3 µM,33.3 µM,47.5 µM,41.4 µM,38.2 µM,41.3 µM,48.7 µM,43.2 µM,> 87.6 µM,> 71 µM,39.2 µM,11.8 µM,19.2 µM
CCOC(=O)/C(C#N)=C/c1coc2cc(C)cc(C)c2c1=O,> 100 µM,> 100 µM,> 100 µM,> 100 µM,> 100 µM,> 100 µM,> 100 µM,> 100 µM,> 100 µM,> 100 µM,> 100 µM,> 100 µM,> 100 µM,> 100 µM,> 100 µM,> 100 µM,> 100 µM,,,
CC(C)(CN1CCCCC1)C(/C=C/c1ccc(Cl)cc1)=N\NC(=O)N/N=C(/C=C/c1ccc(Cl)cc1)C(C)(C)CN1CCCCC1,18.9 µM,25.4 µM,12.5 µM,13.5 µM,19.7 µM,17.1 µM,12.2 µM,11.2 µM,7.21 µM,20.4 µM,8.24 µM,11.7 µM,8.05 µM,16.3 µM,8.52 µM,16.3 µM,13.4 µM,,,
COCOC1/C=C/CCCCC(=O)C(C)C#CC1 (stereo not given),11.7 µM,32.3 µM,3.34 µM,18.3 µM,24 µM,19.5 µM,8.28 µM,15.3 µM,15.6 µM,24.6 µM,9.19 µM,5.4 µM,3.37 µM,20.2 µM,8.02 µM,32.6 µM,18.1 µM,,,
O=C(C(=O)n1ccc2ccccc21)n1ccc2ccccc21,> 100 µM,> 100 µM,> 100 µM,> 100 µM,> 100 µM,> 100 µM,> 100 µM,> 100 µM,> 100 µM,> 100 µM,> 100 µM,> 100 µM,> 100 µM,> 100 µM,> 100 µM,> 100 µM,53.1 µM,,,
CC(N)/C(N)=N/O (stereo not given),> 100 µM,> 100 µM,> 100 µM,> 100 µM,> 100 µM,> 100 µM,> 100 µM,> 100 µM,> 100 µM,> 100 µM,> 100 µM,> 100 µM,> 100 µM,> 100 µM,> 100 µM,> 100 µM,> 100 µM,,,
CCOC(=O)CCC(NC(=O)C(N)Cc1ccc(N(CCCl)CCCl)cc1)C(=O)OCC (stereo not given),3.38 µM,5.3 µM,3.54 µM,3.75 µM,7.9 µM,5.2 µM,3.47 µM,2.93 µM,3.94 µM,> 100 µM,0.739 µM,1.85 µM,0.853 µM,2.23 µM,14 µM,15.5 µM,3.93 µM,,,0.17 µM
N#CSC#CCCC#CSC#N,41.2 µM,29.7 µM,48.5 µM,56.2 µM,48.3 µM,32.2 µM,45.8 µM,34.8 µM,42 µM,37.7 µM,35.7 µM,26.7 µM,13.6 µM,34.3 µM,> 100 µM,29 µM,45.1 µM,,,
O=c1[nH]c(=O)n(C2COC(CO)C2O)cc1F (stereo not given),> 100 µM,> 100 µM,> 100 µM,> 100 µM,> 100 µM,> 100 µM,> 100 µM,> 100 µM,> 100 µM,> 100 µM,60.8 µM,> 100 µM,> 100 µM,> 100 µM,> 100 µM,> 100 µM,> 100 µM,,,
O=C1c2cccc3cc([N+](=O)[O-])cc(c23)C(=O)N1Nc1ccc([N+](=O)[O-])cc1[N+](=O)[O-],> 31.6 µM,> 31.6 µM,34.3 µM,> 46.4 µM,72.7 µM,24.1 µM,24.2 µM,21.1 µM,42.9 µM,41.1 µM,> 31.6 µM,18.3 µM,28.6 µM,29.2 µM,11.6 µM,38.9 µM,25.5 µM,,,
CC(=O)CC1CCC(=O)/C=C/C(=O)OC(CC(C)=O)CCC(=O)/C=C/C(=O)O1 (stereo not given),34.9 µM,36.1 µM,9.08 µM,32 µM,28.6 µM,31.4 µM,31.6 µM,27.3 µM,15 µM,33.7 µM,8.55 µM,3.4 µM,2.91 µM,39.4 µM,> 100 µM,43.4 µM,32.1 µM,,,
COC(=O)CC(C)(NS(=O)c1ccc(C)cc1)c1ccccc1 (stereo not given),> 100 µM,> 100 µM,> 100 µM,> 100 µM,> 100 µM,> 100 µM,> 100 µM,> 100 µM,> 100 µM,> 100 µM,> 100 µM,> 100 µM,> 100 µM,> 100 µM,> 100 µM,> 100 µM,> 100 µM,,,
CCCCCCc1cc2cc(-c3cn4ccsc4n3)c(=O)oc2cc1O,> 100 µM,> 100 µM,> 100 µM,> 27.5 µM,> 100 µM,> 100 µM,> 100 µM,> 44.9 µM,> 100 µM,> 100 µM,> 94.8 µM,> 100 µM,> 100 µM,> 100 µM,> 100 µM,> 100 µM,> 100 µM,,,
COc1ccc(S(=O)(=O)n2c3c(c4ccccc42)[C@@H]2[C@@H](CCCN2C(=O)CS(=O)c2ccc(C)cc2)[C@H](Cl)C3)cc1 (stereo not given in full),> 100 µM,> 100 µM,> 100 µM,> 100 µM,> 100 µM,> 100 µM,> 100 µM,> 100 µM,> 100 µM,> 100 µM,> 100 µM,> 100 µM,> 100 µM,> 100 µM,> 100 µM,> 100 µM,> 100 µM,,,
C=C1c2nc3ccccc3n2C=C(c2ccc(OC)cc2)N1c1ccc(OC)cc1,64.8 µM,63.4 µM,74.4 µM,> 100 µM,> 100 µM,> 100 µM,,35.1 µM,75.9 µM,64.9 µM,29.8 µM,> 100 µM,> 100 µM,> 100 µM,> 100 µM,33.9 µM,94.3 µM,,,
O=C1c2ccccc2C(=O)c2c(/C=C\N3CCCCC3)ccnc21,9.65 µM,50.9 µM,5.89 µM,0.289 µM,28 µM,3.22 µM,15.1 µM,1.1 µM,73.3 µM,31.8 µM,23.1 µM,6.06 µM,13.3 µM,11.9 µM,35.9 µM,17.1 µM,36.8 µM,,,
O=c1c(F)cn(Cc2c(Cl)cccc2Cl)c(=O)n1Cc1c(Cl)cccc1Cl,> 31.6 µM,> 31.6 µM,> 31.6 µM,> 31.6 µM,> 31.6 µM,> 31.6 µM,> 31.6 µM,> 31.6 µM,> 31.6 µM,> 31.6 µM,> 31.6 µM,> 31.6 µM,> 31.6 µM,> 31.6 µM,> 31.6 µM,> 100 µM,> 31.6 µM,,,
NC(Cc1ccccc1)C(=O)NC(Cc1ccccc1)NC(=O)C(Cc1c[nH]c2ccccc12)C(=O)O (stereo not given),> 100 µM,> 100 µM,> 100 µM,> 100 µM,> 100 µM,> 100 µM,> 100 µM,> 100 µM,> 100 µM,> 100 µM,> 100 µM,> 100 µM,> 100 µM,> 100 µM,> 100 µM,> 100 µM,> 100 µM,,,
CC1=C/C(=N\NC(N)=S)C(C(O)(C(F)(F)F)C(F)(F)F)C(C)(C)C1 (stereo not given),> 10 µM,> 10 µM,> 10 µM,> 10 µM,> 10 µM,> 10 µM,> 10 µM,> 10 µM,> 10 µM,> 10 µM,> 10 µM,> 10 µM,> 10 µM,> 10 µM,> 10 µM,> 10 µM,> 10 µM,,,
O=S(=O)(O)c1cc(N=Nc2c(O)ccc3ccccc23)cc2c(S(=O)(=O)O)cccc12,> 100 µM,> 100 µM,> 100 µM,> 100 µM,> 100 µM,> 100 µM,> 100 µM,> 100 µM,> 100 µM,> 100 µM,> 100 µM,> 100 µM,> 100 µM,> 100 µM,> 100 µM,> 100 µM,> 100 µM,,,

# Source: PubChem BioAssay (NCI)
